# Species: Rattus norvegicus
# Assay: DrugMatrix - Regimen: Daily Repeat
# Format: toxicity, organism-based, Sprague-Dawley
# Design: regimen Daily Repeat, gender Male, age 6-8 weeks
# Settings: in vivo, po, route oral GAVAGE, vehicle 100 % SALINE; for ALBUMIN / ALKALINE PHOSPHATASE / ASPARTATE AMINOTRANSFERASE / BLOOD UREA NITROGEN / CARBON DIOXIDE / CHLORIDE / CHOLESTEROL / CREATINE PHOSPHOKINASE / CREATININE / GLUCOSE / LACTATE DEHYDROGENASE / LIPASE / PHOSPHORUS / SODIUM / TOTAL BILIRUBIN / TOTAL PROTEIN / ALANINE AMINOTRANSFERASE: tissue Plasma; for ABSOLUTE BASOPHIL / ABSOLUTE EOSINOPHIL / ABSOLUTE LYMPHOCYTE / ABSOLUTE MONOCYTE / ABSOLUTE SEGMENTED NEUTROPHIL / BASOPHIL / EOSINOPHIL / ERYTHROCYTE COUNT / HEMATOCRIT / HEMOGLOBIN / LEUKOCYTE COUNT / LYMPHOCYTE / MEAN CORPUSCULAR HEMOGLOBIN / MEAN CORPUSCULAR HEMOGLOBIN CONCENTRATION / MONOCYTE / NEUTROPHIL / NUCLEATED RED BLOOD CELLS / PLATELET COUNT: tissue Blood
# [1] = 700 mg/kg, 72 h, dose level Low, time 3 day
# [2] = 700 mg/kg, […], dose level Low, time 7 day
# [3] = 1400 mg/kg, 72 h, dose level High, time 3 day
# [4] = 1400 mg/kg, 120 h, dose level High, time 5 day
# [5] = 2100 mg/kg, 72 h, dose level High, time 3 day
# [6] = 2100 mg/kg, […], dose level High, time 7 day
smiles,measurement,setting,value
CN(C)C=O [DIMETHYLFORMAMIDE],ALBUMIN,[1],3.93 G/DL
same,ALKALINE PHOSPHATASE,[1],282 u/L
same,ASPARTATE AMINOTRANSFERASE,[1],140.33 u/L
same,BLOOD UREA NITROGEN,[1],11.33 mg/dL
same,CARBON DIOXIDE,[1],29.33 mmol/L
same,CHLORIDE,[1],98.33 MEQ/L
same,CHOLESTEROL,[1],93.83 mg/dL
same,CREATINE PHOSPHOKINASE,[1],256.33 u/L
same,CREATININE,[1],0.18 mg/dL
same,GLUCOSE,[1],142 mg/dL
same,LACTATE DEHYDROGENASE,[1],131.83 u/L
same,LIPASE,[1],10.17 u/L
same,PHOSPHORUS,[1],10.13 mg/dL
same,SODIUM,[1],143.05 MEQ/L
same,TOTAL BILIRUBIN,[1],0.2 mg/dL
same,TOTAL PROTEIN,[1],5.9 G/DL
same,ABSOLUTE BASOPHIL,[2],0 CELLS/uL
same,ABSOLUTE EOSINOPHIL,[2],0 CELLS/uL
same,ABSOLUTE LYMPHOCYTE,[2],8451.4 CELLS/uL
same,ABSOLUTE MONOCYTE,[2],140.6 CELLS/uL
same,ABSOLUTE SEGMENTED NEUTROPHIL,[2],648 CELLS/uL
same,BASOPHIL,[2],0%
same,EOSINOPHIL,[2],0%
same,ERYTHROCYTE COUNT,[2],5.61 x10E6/uL
same,HEMATOCRIT,[2],35.36%
same,HEMOGLOBIN,[2],14.32 G/DL
same,LEUKOCYTE COUNT,[2],9.24 x10E3/uL
same,LYMPHOCYTE,[2],91%
same,MEAN CORPUSCULAR HEMOGLOBIN,[2],25.62 pg
same,MEAN CORPUSCULAR HEMOGLOBIN CONCENTRATION,[2],40.5 G/DL
same,MONOCYTE,[2],1.6%
same,NEUTROPHIL,[2],7.4%
same,NUCLEATED RED BLOOD CELLS,[2],0 /100WBC
same,PLATELET COUNT,[2],1220.6 x10E3/uL
same,ALANINE AMINOTRANSFERASE,[2],100.4 u/L
same,ALBUMIN,[2],4.46 G/DL
same,ALKALINE PHOSPHATASE,[2],218 u/L
same,ASPARTATE AMINOTRANSFERASE,[2],142.4 u/L
same,BLOOD UREA NITROGEN,[2],16.4 mg/dL
same,CARBON DIOXIDE,[2],30 mmol/L
same,CHLORIDE,[2],98.6 MEQ/L
same,CHOLESTEROL,[2],102 mg/dL
same,CREATINE PHOSPHOKINASE,[2],220.4 u/L
same,CREATININE,[2],0.23 mg/dL
same,GLUCOSE,[2],122.8 mg/dL
same,LACTATE DEHYDROGENASE,[2],232.2 u/L
same,LIPASE,[2],11 u/L
same,PHOSPHORUS,[2],12.18 mg/dL
same,SODIUM,[2],145.44 MEQ/L
same,TOTAL BILIRUBIN,[2],0.2 mg/dL
same,TOTAL PROTEIN,[2],6.06 G/DL
same,ABSOLUTE BASOPHIL,[3],0 CELLS/uL
same,ABSOLUTE EOSINOPHIL,[3],0 CELLS/uL
same,ABSOLUTE LYMPHOCYTE,[3],16367 CELLS/uL
same,ABSOLUTE MONOCYTE,[3],177 CELLS/uL
same,ABSOLUTE SEGMENTED NEUTROPHIL,[3],1156 CELLS/uL
same,BASOPHIL,[3],0%
same,EOSINOPHIL,[3],0%
same,ERYTHROCYTE COUNT,[3],6.79 x10E6/uL
same,HEMATOCRIT,[3],42.9%
same,HEMOGLOBIN,[3],16.15 G/DL
same,LEUKOCYTE COUNT,[3],17.7 x10E3/uL
same,LYMPHOCYTE,[3],92.5%
same,MEAN CORPUSCULAR HEMOGLOBIN,[3],23.8 pg
same,MEAN CORPUSCULAR HEMOGLOBIN CONCENTRATION,[3],37.65 G/DL
same,MONOCYTE,[3],1%
same,NEUTROPHIL,[3],6.5%
same,NUCLEATED RED BLOOD CELLS,[3],0 /100WBC
same,PLATELET COUNT,[3],447 x10E3/uL
same,ALANINE AMINOTRANSFERASE,[3],1328 u/L
same,ALBUMIN,[3],4.1 G/DL
same,ALKALINE PHOSPHATASE,[3],424 u/L
same,ASPARTATE AMINOTRANSFERASE,[3],1614.5 u/L
same,BLOOD UREA NITROGEN,[3],20 mg/dL
same,CARBON DIOXIDE,[3],33 mmol/L
same,CHLORIDE,[3],99.5 MEQ/L
same,CHOLESTEROL,[3],70.5 mg/dL
same,CREATINE PHOSPHOKINASE,[3],326.5 u/L
same,CREATININE,[3],0.47 mg/dL
same,GLUCOSE,[3],210.5 mg/dL
same,LACTATE DEHYDROGENASE,[3],461 u/L
same,LIPASE,[3],11 u/L
same,PHOSPHORUS,[3],9 mg/dL
same,SODIUM,[3],148.05 MEQ/L
same,TOTAL BILIRUBIN,[3],0.35 mg/dL
same,TOTAL PROTEIN,[3],5.8 G/DL
same,ABSOLUTE BASOPHIL,[4],0 CELLS/uL
same,ABSOLUTE EOSINOPHIL,[4],0 CELLS/uL
same,ABSOLUTE LYMPHOCYTE,[4],7335 CELLS/uL
same,ABSOLUTE MONOCYTE,[4],49.5 CELLS/uL
same,ABSOLUTE SEGMENTED NEUTROPHIL,[4],565.5 CELLS/uL
same,BASOPHIL,[4],0%
same,EOSINOPHIL,[4],0%
same,ERYTHROCYTE COUNT,[4],7.28 x10E6/uL
same,HEMATOCRIT,[4],45.7%
same,HEMOGLOBIN,[4],16.7 G/DL
same,LEUKOCYTE COUNT,[4],7.95 x10E3/uL
same,LYMPHOCYTE,[4],93%
same,MEAN CORPUSCULAR HEMOGLOBIN,[4],22.95 pg
same,MEAN CORPUSCULAR HEMOGLOBIN CONCENTRATION,[4],36.55 G/DL
same,MONOCYTE,[4],0.5%
same,NEUTROPHIL,[4],6.5%
same,NUCLEATED RED BLOOD CELLS,[4],0 /100WBC
same,PLATELET COUNT,[4],998 x10E3/uL
same,ALANINE AMINOTRANSFERASE,[4],5117.67 u/L
same,ALBUMIN,[4],4.53 G/DL
same,ALKALINE PHOSPHATASE,[4],286.67 u/L
same,ASPARTATE AMINOTRANSFERASE,[4],8354 u/L
same,BLOOD UREA NITROGEN,[4],21 mg/dL
same,CARBON DIOXIDE,[4],35 mmol/L
same,CHLORIDE,[4],92 MEQ/L
same,CHOLESTEROL,[4],136 mg/dL
same,CREATINE PHOSPHOKINASE,[4],493.33 u/L
same,CREATININE,[4],0.36 mg/dL
same,GLUCOSE,[4],145 mg/dL
same,LACTATE DEHYDROGENASE,[4],42966.33 u/L
same,LIPASE,[4],12.33 u/L
same,PHOSPHORUS,[4],13.03 mg/dL
same,SODIUM,[4],146.2 MEQ/L
same,TOTAL BILIRUBIN,[4],0.5 mg/dL
same,TOTAL PROTEIN,[4],7.33 G/DL
same,ABSOLUTE BASOPHIL,[5],0 CELLS/uL
same,ABSOLUTE EOSINOPHIL,[5],16 CELLS/uL
same,ABSOLUTE LYMPHOCYTE,[5],6718 CELLS/uL
same,ABSOLUTE MONOCYTE,[5],23.33 CELLS/uL
same,ABSOLUTE SEGMENTED NEUTROPHIL,[5],509.33 CELLS/uL
same,BASOPHIL,[5],0%
same,EOSINOPHIL,[5],0.17%
same,ERYTHROCYTE COUNT,[5],5.8 x10E6/uL
same,HEMATOCRIT,[5],38.27%
same,HEMOGLOBIN,[5],13.57 G/DL
same,LEUKOCYTE COUNT,[5],7.27 x10E3/uL
same,LYMPHOCYTE,[5],92.5%
same,MEAN CORPUSCULAR HEMOGLOBIN,[5],23.42 pg
same,MEAN CORPUSCULAR HEMOGLOBIN CONCENTRATION,[5],35.45 G/DL
same,MONOCYTE,[5],0.33%
same,NEUTROPHIL,[5],7%
same,NUCLEATED RED BLOOD CELLS,[5],0 /100WBC
same,PLATELET COUNT,[5],1059 x10E3/uL
same,ALANINE AMINOTRANSFERASE,[5],105.67 u/L
same,ALBUMIN,[5],4.47 G/DL
same,ALKALINE PHOSPHATASE,[5],224.5 u/L
same,ASPARTATE AMINOTRANSFERASE,[5],117.33 u/L
same,BLOOD UREA NITROGEN,[5],14.5 mg/dL
same,CARBON DIOXIDE,[5],31.33 mmol/L
same,CHLORIDE,[5],100.17 MEQ/L
same,CHOLESTEROL,[5],99.33 mg/dL
same,CREATINE PHOSPHOKINASE,[5],191 u/L
same,CREATININE,[5],0.22 mg/dL
same,GLUCOSE,[5],143.67 mg/dL
same,LACTATE DEHYDROGENASE,[5],109.83 u/L
same,LIPASE,[5],10.33 u/L
same,PHOSPHORUS,[5],9.67 mg/dL
same,SODIUM,[5],146.58 MEQ/L
same,TOTAL BILIRUBIN,[5],0.17 mg/dL
same,TOTAL PROTEIN,[5],6.25 G/DL
same,ABSOLUTE BASOPHIL,[6],0 CELLS/uL
same,ABSOLUTE EOSINOPHIL,[6],0 CELLS/uL
same,ABSOLUTE LYMPHOCYTE,[6],6108.5 CELLS/uL
same,ABSOLUTE MONOCYTE,[6],208.75 CELLS/uL
same,ABSOLUTE SEGMENTED NEUTROPHIL,[6],1557.75 CELLS/uL
same,BASOPHIL,[6],0%
same,EOSINOPHIL,[6],0%
same,ERYTHROCYTE COUNT,[6],6.06 x10E6/uL
same,HEMATOCRIT,[6],37.55%
same,HEMOGLOBIN,[6],14.95 G/DL
same,LEUKOCYTE COUNT,[6],7.88 x10E3/uL
same,LYMPHOCYTE,[6],79.5%
same,MEAN CORPUSCULAR HEMOGLOBIN,[6],24.67 pg
same,MEAN CORPUSCULAR HEMOGLOBIN CONCENTRATION,[6],39.83 G/DL
same,MONOCYTE,[6],2.5%
same,NEUTROPHIL,[6],18%
same,NUCLEATED RED BLOOD CELLS,[6],0 /100WBC
same,PLATELET COUNT,[6],396 x10E3/uL
same,ALANINE AMINOTRANSFERASE,[6],452.75 u/L
same,ALBUMIN,[6],4.22 G/DL
same,ALKALINE PHOSPHATASE,[6],271.25 u/L
same,ASPARTATE AMINOTRANSFERASE,[6],1219.25 u/L
same,BLOOD UREA NITROGEN,[6],15.25 mg/dL
same,CARBON DIOXIDE,[6],29 mmol/L
same,CHLORIDE,[6],103 MEQ/L
same,CHOLESTEROL,[6],75.75 mg/dL
same,CREATINE PHOSPHOKINASE,[6],261 u/L
same,CREATININE,[6],0.25 mg/dL
same,GLUCOSE,[6],147.75 mg/dL
same,LACTATE DEHYDROGENASE,[6],101.25 u/L
same,LIPASE,[6],10.25 u/L
same,PHOSPHORUS,[6],7.55 mg/dL
same,SODIUM,[6],147.12 MEQ/L
same,TOTAL BILIRUBIN,[6],0.33 mg/dL
same,TOTAL PROTEIN,[6],5.7 G/DL
